Where “and” joins values, the source holds several entries; their conditions need not be identical. Identical values can stand only once. Inconclusive results and toxic doses are left out.
System: BDF1 mice, P388 leukemia ip, median survival T/C
Assay: NCI In Vivo Anticancer Drug Screen. Data for tumor model P388 Leukemia (intraperitoneal) in B6D2F1 (BDF1) mice
Conditions: endpoint: median survival time, higher = longer survival
In short: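 T/C = treated-group survival ÷ vehicle-control survival; tumour transplanted into mice before dosing.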

[1] = dose: 25.0 mg/kg/injection, schedule: Q01DX009 (ip), vehicle: saline with Tween-80
[2] = dose: 50.0 mg/kg/injection, schedule: Q01DX009 (ip), vehicle: saline with Tween-80
[3] = dose: 200.0 mg/kg/injection, schedule: Q01DX009 (ip), vehicle: saline with Tween-80
[4] = dose: 25.0 mg/kg/injection, schedule: Q01DX009 (ip), vehicle: saline
[5] = dose: 100.0 mg/kg/injection, schedule: Q04DX003 (ip), vehicle: saline with Tween-80
[6] = dose: 100.0 mg/kg/injection, schedule: Q01DX009 (ip), vehicle: saline with Tween-80
[7] = dose: 200.0 mg/kg/injection, schedule: Q04DX003 (ip), vehicle: saline with Tween-80
[8] = dose: 400.0 mg/kg/injection, schedule: Q04DX003 (ip), vehicle: saline with Tween-80
[9] = dose: 100.0 mg/kg/injection, schedule: Q04DX003 (ip), vehicle: Klucel (hydroxypropylcellulose) (HPC)
[10] = dose: 200.0 mg/kg/injection, schedule: Q04DX003 (ip), vehicle: Klucel (hydroxypropylcellulose) (HPC)
[11] = dose: 400.0 mg/kg/injection, schedule: Q04DX003 (ip), vehicle: Klucel (hydroxypropylcellulose) (HPC)

Compound: CCN(CC)CCNc1ccc(CO)c2sc3ccccc3c(=O)c12
- T/C (dose: 17.3 mg/kg/injection, schedule: Q01DX009 (ip), vehicle: water): 108 % of control
- T/C (dose: 18.75 mg/kg/injection, schedule: Q01DX009 (ip), vehicle: saline): 104 % of control
- T/C (dose: 21.6 mg/kg/injection, schedule: Q01DX009 (ip), vehicle: water): 119 % of control
- T/C (dose: 28.8 mg/kg/injection, schedule: Q01DX009 (ip), vehicle: water): 122 % of control
- T/C (dose: 42.0 mg/kg/injection, schedule: Q01DX009 (ip), vehicle: water): 150 % of control
- T/C (dose: 48.0 mg/kg/injection, schedule: Q01DX009 (ip), vehicle: water): 170 % of control
- T/C (dose: 60.0 mg/kg/injection, schedule: Q01DX009 (ip), vehicle: water): 160 % of control
- T/C (dose: 70.0 mg/kg/injection, schedule: Q01DX009 (ip), vehicle: water): 122 % of control
- T/C (dose: 75.0 mg/kg/injection, schedule: Q01DX009 (ip), vehicle: saline): 116 % of control
- T/C (dose: 80.0 mg/kg/injection, schedule: Q01DX009 (ip), vehicle: water): 188 % of control
- T/C (dose: 88.0 mg/kg/injection, schedule: Q04DX003 (ip), vehicle: saline): 109 % of control
- T/C (dose: 100.0 mg/kg/injection, schedule: Q01DX009 (ip), vehicle: water): 113 % of control
- T/C (dose: 117.0 mg/kg/injection, schedule: Q01DX009 (ip), vehicle: water): 97 % of control
- T/C (dose: 132.0 mg/kg/injection, schedule: Q04DX003 (ip), vehicle: saline): 109 % of control
- T/C (dose: 200.0 mg/kg/injection, schedule: Q04DX003 (ip), vehicle: saline): 122 % of control
- T/C (dose: 300.0 mg/kg/injection, schedule: Q04DX003 (ip), vehicle: saline): 163 % of control

Compound: COC(CN1C(=O)CSC1=S)OC
- T/C [1]: 100 % of control
- T/C [2]: 104 % of control and 117 % of control
- T/C [3]: 109 % of control

Compound: Cc1noc(N)c1[N+](=O)[O-]
- T/C [4]: 95 % of control
- T/C (dose: 50.0 mg/kg/injection, schedule: Q01DX009 (ip), vehicle: saline): 109 % of control
- T/C (dose: 100.0 mg/kg/injection, schedule: Q01DX009 (ip), vehicle: saline): 109 % of control

Compound: O=c1c2ccccc2[nH]c2c([N+](=O)[O-])ccc(Oc3cccc(C(F)(F)F)c3)c12
- T/C (dose: 100.0 mg/kg/injection, schedule: Q04DX002 (ip), vehicle: saline with Tween-80): 90 % of control
- T/C (dose: 200.0 mg/kg/injection, schedule: Q04DX002 (ip), vehicle: saline with Tween-80): 102 % of control
- T/C (dose: 400.0 mg/kg/injection, schedule: Q04DX002 (ip), vehicle: saline with Tween-80): 92 % of control

Compound: NC(=O)NC(=O)/C=C/C(=O)O
- T/C (dose: 25.0 mg/kg/injection, schedule: Q04DX003 (ip), vehicle: saline with Tween-80): 91 % of control
- T/C (dose: 50.0 mg/kg/injection, schedule: Q04DX003 (ip), vehicle: saline with Tween-80): 100 % of control
- T/C [5]: 91 % of control

Compound: CCCCNC(C)(C)C(SSSC(c1ccc(C(F)(F)F)cc1)C(C)(C)NCCCC)c1ccc(C(F)(F)F)cc1 (centres undefined)
- T/C (dose: 100.0 mg/kg/injection, schedule: Q04DX003 (ip), vehicle: saline): 120 % of control
- T/C (dose: 400.0 mg/kg/injection, schedule: Q04DX003 (ip), vehicle: saline): 120 % of control

Compound: CC(C)CCCC(C)C1CCC2C3CC=C4CC([S+](C)C)CCC4(C)C3CCC12C (centres undefined)
- T/C (dose: 12.5 mg/kg/injection, schedule: Q01DX009 (ip), vehicle: saline): 109 % of control
- T/C [4]: 86 % of control

Compound: CC(=O)OCC(=O)[C@@]1(O)CC[C@H]2[C@@H]3CCC4=CC(=O)CC[C@]4(C)[C@H]3[C@@H](O)C[C@@]21C
- T/C (dose: 90.0 mg/kg/injection, schedule: Q01DX010 (sc), vehicle: steriod suspending solution): 100 % of control
- T/C [6]: 100 % of control
- T/C (dose: 130.0 mg/kg/injection, schedule: Q01DX010 (sc), vehicle: steriod suspending solution): 88 % of control
- T/C [3]: 110 % of control
- T/C (dose: 400.0 mg/kg/injection, schedule: Q01DX009 (ip), vehicle: saline with Tween-80): 90 % of control

Compound: C[N+](C)(C)c1ccc2ccccc2n1
- T/C (dose: 3.12 mg/kg/injection, schedule: Q01DX001 (ip), vehicle: Klucel (hydroxypropylcellulose) (HPC)): 122 % of control
- T/C (dose: 6.25 mg/kg/injection, schedule: Q01DX001 (ip), vehicle: Klucel (hydroxypropylcellulose) (HPC)): 110 % of control
- T/C (dose: 12.5 mg/kg/injection, schedule: Q01DX001 (ip), vehicle: Klucel (hydroxypropylcellulose) (HPC)): 122 % of control
- T/C (dose: 18.5 mg/kg/injection, schedule: Q01DX001 (ip), vehicle: Klucel (hydroxypropylcellulose) (HPC)): 112 % of control
- T/C (dose: 25.0 mg/kg/injection, schedule: Q01DX001 (ip), vehicle: saline): 120 % of control
- T/C (dose: 50.0 mg/kg/injection, schedule: Q01DX001 (ip), vehicle: saline): 118 % of control

Compound: O=C1C=C2C(=CCOC2O)O1 (centres undefined)
- T/C (dose: 0.01 mg/kg/injection, schedule: Q01DX009 (ip), vehicle: other): 104 % of control
- T/C (dose: 0.03 mg/kg/injection, schedule: Q01DX009 (ip), vehicle: other): 111 % of control
- T/C (dose: 0.1 mg/kg/injection, schedule: Q01DX009 (ip), vehicle: other): 104 % of control
- T/C (dose: 3.0 mg/kg/injection, schedule: Q01DX009 (ip), vehicle: other): 158 % of control

Compound: O=c1nc[nH]c(=O)[nH]1
- T/C [1]: 97 % of control
- T/C [2]: 99 % of control
- T/C [6]: 97 % of control
- T/C [3]: 104 % of control

Compound: Nc1ccc(Oc2ccc(Cl)cc2)c(Cl)c1
- T/C [5]: 100 % of control
- T/C [7]: 95 % of control
- T/C [8]: 104 % of control

Compound: CC1SC(c2ccccc2)N(c2ccccc2)C1=O (centres undefined)
- T/C (dose: 100.0 mg/kg/injection, schedule: Q01DX009 (ip), vehicle: Klucel (hydroxypropylcellulose) (HPC)): 104 % of control
- T/C [9]: 104 % of control
- T/C (dose: 200.0 mg/kg/injection, schedule: Q01DX009 (ip), vehicle: Klucel (hydroxypropylcellulose) (HPC)): 116 % of control
- T/C [10]: 104 % of control
- T/C (dose: 400.0 mg/kg/injection, schedule: Q01DX009 (ip), vehicle: Klucel (hydroxypropylcellulose) (HPC)): 100 % of control
- T/C [11]: 109 % of control

Compound: Cc1ncc([N+](=O)[O-])n1CCn1nnc2c1CCCC2
- T/C [7]: 210 % of control
- T/C [8]: 114 % of control

Compound: CC(C)(C)c1cc([N+](=O)[O-])cc([N+](=O)[O-])c1O
- T/C (dose: 0.78 mg/kg/injection, schedule: Q01DX009 (ip), vehicle: saline with Tween-80): 105 % of control
- T/C (dose: 1.56 mg/kg/injection, schedule: Q01DX009 (ip), vehicle: saline with Tween-80): 101 % of control
- T/C (dose: 3.13 mg/kg/injection, schedule: Q01DX009 (ip), vehicle: saline with Tween-80): 101 % of control
- T/C (dose: 6.25 mg/kg/injection, schedule: Q01DX009 (ip), vehicle: saline with Tween-80): 99 % of control

Compound: CC(=O)C1CCCC23CC(CC12)C(C)(C)C3OC=O (centres undefined)
- T/C [9]: 90 % of control
- T/C [10]: 100 % of control
- T/C [11]: 109 % of control
